In patent US8927484B2, “Antiviral compounds” (Gilead Sciences, Inc., priority 2009, dated 2015):

Experiments:
HCV NS3 protease = target: T1, HCV NS3 protease (Hepatitis C virus genotype 1a, UniProt P27958); assay: HCV NS3 Protease IC50 Determination (FRET); type: biochemical; conditions: result in words
T1 construct: 2-10 nM of purified NS3 protease domains were pre-incubated

[1] = tested on: Replicon cells harboring H77 (genotype 1a) or Con1 (genotype 1b) HCV RNA and Renilla luciferase reporter; assay: High Throughput Replicon Assay (HTBS); type: cell-based
Procedure: High Throughput Replicon Assay (HTBS)
Replicon cells harboring H77 (genotype 1a) or Con1 (genotype 1b) HCV RNA and Renilla luciferase reporter were seeded in 384-well black plates at a density of 1.6×10^3 cells per well in 90 μl of DMEM culture medium, excluding G-418. Compounds were serially diluted in 100% DMSO and added to cells at a 1:225 dilution, achieving a final concentration of 0.44% DMSO in a total volume of 90 μL with a Biotek uFlow Workstation. Cell plates were incubated at 37° C. with 5% CO2 for 3 days, after which culture media were removed and cells were assayed for luciferase activity as a marker for replication level. Luciferase expression was measured using Dual-Glo luciferase assay reagents (Promega, Madison, Wis.). Briefly, 20 μL of Dual-Glo luciferase buffer was added to lyse the cells for 10 min and subsequently 20 μL of a diluted Dual-Glo Stop & Glo substrate (1:100) was added to each well. Luminescence signal was measured on a Perkin Elmer Envision Plate Reader after incubation for 10 minute. Luciferase levels were converted into percentages relative to the untreated controls (defined as 100%) and data were fit to the logistic dose response equation y=a/(1+(x/b)^c) using XLFit4 software (IDBS, Emeryville, Calif.). EC50 values were calculated from the resulting equations.

T1 sequence (P27958 1027-1208): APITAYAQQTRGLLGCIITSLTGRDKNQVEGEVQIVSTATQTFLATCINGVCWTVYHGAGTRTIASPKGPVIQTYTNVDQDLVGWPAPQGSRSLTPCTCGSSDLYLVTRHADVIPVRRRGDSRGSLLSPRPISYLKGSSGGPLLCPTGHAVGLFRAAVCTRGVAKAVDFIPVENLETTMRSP

Row | SMILES | activity in the enzymatic assay (HCV NS3 protease) | activity in the cellular assay ([1]; result in words) | inhibition at 1 µM ([1]; 72 h, read-out: INH @1 μM (Mean)) [%]
1 | CC[C@@H]1C[C@]1(NC(=O)[C@@H]1C[C@@H](OC(=O)N2Cc3cccc(F)c3C2)[C@H]2CCCC(=O)N21)C(=O)NS(=O)(=O)C1CC1 [Example 90] | fails to demonstrate optimal activity | fails to demonstrate optimal activity | 
2 | C=C[C@@H]1C[C@]1(NC(=O)[C@@H]1C[C@@H](Oc2cc(-c3nc(C(C)C)cs3)nc3c(Cl)c(OCCN4CCOCC4)ccc23)[C@H]2CN(C(=O)OC(C)(C)C)[C@H](C(C)C)C(=O)N21)C(=O)NS(=O)(=O)C1CC1 [Example 9] |  |  | > 99
